Laboratory results: paper PMC4506051, “Pharmacokinetic Profiles of Active Ingredients and Its Metabolites Derived from Rikkunshito, a Ghrelin Enhancer, in Healthy Japanese Volunteers: A Cross-Over, Randomized Study” (PLoS ONE, 2015)

Key:
[1] = Exploratory trial: plasma concentration of rikkunshito ingredients after single oral rikkunshito 7.5 g; type: in vivo
Protocol: A random sequence was generated using a computer. The safety endpoint was evaluated in all volunteers.
(§1) In the first exploratory trial, 20-mL blood samples were collected from the cutaneous vein in the subjects’ forearm via a blood sampling tube that contained heparin at 0 (preadministration), 0.5, 1, 2, 4, and 8 h after a single oral administration of rikkunshito (Lot E24652). The dose of rikkunshito used in this trial was 7.5 g/day, which is the clinical daily dose, to widely explore rikkunshito-derived ingredients that enter the blood. Along with plasma, urine samples were collected at three points: between dinner and bedtime (preadministration), between 0 and 4 h after administration, and between 4 and 8 h after administration. The blood was immediately centrifuged at 1700 ×g for 10 min to obtain plasma. Plasma and urine fractions were stored at −80°C or lower until analysis.
(§2) For quantification of synephrine, 5 µL of standard solution or methanol was added to 100 µL plasma or urine samples followed by mixing. Ten microliters of erythromycin [internal standard (IS)] solution was added to the solutions followed by mixing and centrifugation (20,400 ×g, 5 min, 4°C). The supernatants were loaded onto an Ostro 96-well plate (Waters) and centrifuged (1500 ×g, 3 min, 4°C) followed by injection into the LC–MS/MS.
(§3) For quantification of 30 ingredients other than atractylodin and synephrine, 25 µL of standard solution or methanol was added to 500 µL plasma or urine samples followed by mixing. Atractylenolide III or digoxin (IS) solution (50 μL) was added to the solutions followed by mixing. For urine, 400 µL of blank plasma was added to the solutions. Ammonium acetate solution (100 mM, 100 or 400 µL) was added to the solutions followed by mixing. For enzymatic treatment, plasma and urine samples were incubated with β-glucuronidase (100 units in 100 mM ammonium acetate) for 2 h at 37°C. A solid-phase cartridge (OASIS HLB, 30 mg/1cc, Waters) was conditioned with methanol and 10 mM ammonium acetate solution, and the samples were loaded onto the cartridge. The cartridge was washed water : methanol (9:1, v/v), and 1.5 mL of methanol and 30 µL of propylene glycol were added to the cartridge to elute the analytes. The mixtures were dried at 25°C under a stream of nitrogen gas. Furthermore, 100 μL of 10 mM ammonium acetate : methanol (8:2, v/v) was added to the dried samples followed by mixing and sonication. The solutions were filtered (0.22 µm) and followed by injection into the LC–MS/MS system. […] Those analytical conditions are summarized in S2 Table and S3 Table.

[2] = Stability of ingredients in gastric pH solution (pH 1.2, 37°C); type: physicochemical
Protocol: Rikkunshito gradually dissolved in acidic solution (pH 1.2) at 37°C, and the concentration of atractylodin after adding 0.25, 0.5, 1, and 2 h was measured by gas chromatography–mass spectrometry.

[3] = Exploratory trial: amount of rikkunshito ingredients in urine; type: in vivo, human; settings: mean ± S.D., n = 4; for Amount in urine, 0–4 h: 0–4 h after single oral rikkunshito 7.5 g; for Amount in urine, 4–8 h: 4–8 h after single oral rikkunshito 7.5 g; for Amount in urine, Pre: preadministration (between dinner and bedtime)
Protocol: as §1, §2, §3

[4] = rikkunshito in acidic solution (pH 1.2) at 37°C, 0.5 h
[5] = rikkunshito in acidic solution (pH 1.2) at 37°C, 1 h
[6] = rikkunshito in acidic solution (pH 1.2) at 37°C, 2 h

| Compound | concentration at 4 h ([1]; human, in vivo, po) [ng/mL] | Plasma concentration, 0 h ([1]; in vivo, po) | Plasma concentration, 0.5 h ([1]; in vivo, po) | Plasma concentration, 1 h ([1]; in vivo, po) | Plasma concentration, 2 h ([1]; in vivo, po) | Plasma concentration, 8 h ([1]; in vivo, po) | Stability in gastric pH solution, Quantitative value ([2]; 0.5 h, pH 1.2) [ng/mL] | Stability in gastric pH solution, Quantitative value ([2]; 1 h, pH 1.2) [ng/mL] | Stability in gastric pH solution, Quantitative value ([2]; 2 h, pH 1.2) [ng/mL] | Amount in urine, 0–4 h [3] | Amount in urine, 4–8 h [3] [ng] | Amount in urine, Pre [3] | Stability in gastric pH solution, Quantitative value [2, 4] [ng/mL] | Stability in gastric pH solution, Quantitative value [2, 5] [ng/mL] | Stability in gastric pH solution, Quantitative value [2, 6] [ng/mL] | also measured |
| --- | --- | --- | --- | --- | --- | --- | --- | --- | --- | --- | --- | --- | --- | --- | --- | --- |
| CC(C)=CCC[C@](C)(O[C@@H]1O[C@H](CO[C@@H]2O[C@H](CO)[C@@H](O)[C@H](O)[C@H]2O)[C@@H](O)[C@H](O)[C@H]1O)[C@H]1CC[C@]2(C)[C@@H]1[C@H](O)C[C@@H]1[C@@]3(C)CC[C@H](O[C@@H]4O[C@H](CO)[C@@H](O)[C@H](O)[C@H]4O[C@@H]4O[C@H](CO)[C@@H](O)[C@H](O)[C@H]4O)C(C)(C)[C@@H]3CC[C@]12C [Ginsenoside Rb1] | 0.175 ± 0.118 | BQL | BQL | BQL | BQL | BQL | 297 | 202 | 86.4 | – | – | – | – | – | – | – |
| CC(C)=CCC[C@](C)(O[C@@H]1O[C@H](CO[C@@H]2OC[C@H](O)[C@H](O)[C@H]2O)[C@@H](O)[C@H](O)[C@H]1O)[C@H]1CC[C@]2(C)[C@@H]1[C@H](O)C[C@@H]1[C@@]3(C)CC[C@H](O[C@@H]4O[C@H](CO)[C@@H](O)[C@H](O)[C@H]4O[C@@H]4O[C@H](CO)[C@@H](O)[C@H](O)[C@H]4O)C(C)(C)[C@@H]3CC[C@]12C [Ginsenoside Rb2] | – | – | – | – | – | – | 275 | 168 | 77.3 | 202 ± 202 ng | 84.6 ± 90.1 | BQL | – | – | – | – |
| CC(C)=CCC[C@](C)(O[C@@H]1O[C@H](CO[C@@H]2O[C@@H](CO)[C@H](O)[C@H]2O)[C@@H](O)[C@H](O)[C@H]1O)[C@H]1CC[C@]2(C)[C@@H]1[C@H](O)C[C@@H]1[C@@]3(C)CC[C@H](O[C@@H]4O[C@H](CO)[C@@H](O)[C@H](O)[C@H]4O[C@@H]4O[C@H](CO)[C@@H](O)[C@H](O)[C@H]4O)C(C)(C)[C@@H]3CC[C@]12C [Ginsenoside Rc] | 0.0303 ± 0.0605 | BQL | BQL | BQL | BQL | BQL | 188 | 115 | 39.3 | – | – | – | – | – | – | – |
| CC(C)=CCC[C@](C)(O[C@@H]1O[C@H](CO)[C@@H](O)[C@H](O)[C@H]1O)[C@H]1CC[C@]2(C)[C@@H]1[C@H](O)C[C@@H]1[C@@]3(C)CC[C@H](O[C@@H]4O[C@H](CO)[C@@H](O)[C@H](O)[C@H]4O[C@@H]4O[C@H](CO)[C@@H](O)[C@H](O)[C@H]4O)C(C)(C)[C@@H]3CC[C@]12C [Ginsenoside Rd] | – | – | – | – | – | – | 98.5 | 68.1 | 20.3 | – | – | – | – | – | – | Plasma concentration, 0 h ([1]; 0 h (preadministration), single oral rikkunshito 7.5 g, mean ± S.D., n = 4): BQL; Plasma concentration, 0.5 h ([1]; 0.5 h after single oral rikkunshito 7.5 g, mean ± S.D., n = 4): BQL; Plasma concentration, 2 h ([1]; 2 h after single oral rikkunshito 7.5 g, mean ± S.D., n = 4): BQL; Plasma concentration, 4 h ([1]; 4 h after single oral rikkunshito 7.5 g, mean ± S.D., n = 4): BQL; Plasma concentration, 8 h ([1]; 8 h after single oral rikkunshito 7.5 g, mean ± S.D., n = 4): BQL; concentration at 1 h ([1]; human, in vivo, 1 h after single oral rikkunshito 7.5 g, mean ± S.D., n = 4): 0.0308 ± 0.0615 ng/mL |
| CC(C)=CCC[C@](C)(O[C@@H]1O[C@H](CO)[C@@H](O)[C@H](O)[C@H]1O)[C@H]1CC[C@]2(C)[C@@H]1[C@H](O)C[C@@H]1[C@@]3(C)CC[C@H](O)C(C)(C)[C@@H]3[C@@H](O[C@@H]3O[C@H](CO)[C@@H](O)[C@H](O)[C@H]3O[C@@H]3O[C@@H](C)[C@H](O)[C@@H](O)[C@H]3O)C[C@]12C [Ginsenoside Re] | – | – | – | – | – | – | 96.7 | 58.4 | 23.7 | BQL | 30.6 ± 61.2 | BQL | – | – | – | – |
| CC1(C)[C@@H](O[C@@H]2O[C@H](C(=O)O)[C@@H](O)[C@H](O)[C@H]2O)CC[C@]2(C)[C@H]3C(=O)C=C4[C@@H]5C[C@@](C)(C(=O)O)CC[C@]5(C)CC[C@@]4(C)[C@]3(C)CC[C@@H]12 [Glycyrrhetic acid 3-O-glucuronide, Glycyrrhetinic acid 3-O-glucuronide] | – | BQL | BQL | 0.0448 ± 0.0895 ng/mL | 0.244 ± 0.0735 ng/mL | 0.247 ± 0.0622 ng/mL | – | – | – | BQL | 6.94 ± 13.9 | BQL | – | – | – | Plasma concentration, 4 h ([1]; in vivo, po): 0.327 ± 0.0656 ng/mL |
| CC1(C)CC[C@]2(C(=O)O)CC[C@]3(C)C(=CC[C@@H]4[C@@]5(C)CC[C@H](O)C(C)(C)[C@@H]5CC[C@]43C)[C@@H]2C1 [Oleanolic acid] | 0.903 ± 0.983 | BQL | BQL | BQL | – | – | – | – | – | – | – | – | 3.61 | 3.54 | 3.28 | concentration at 2 h ([1]; human, in vivo, po): 0.198 ± 0.395 ng/mL; concentration at 8 h ([1]; human, in vivo, po): 1.12 ± 0.89 ng/mL; Cmax ([1]; human, in vivo, rikkunshito 7.5 g, four subjects, highest mean concentration over 0–8 h, read-out: C max in plasma (exploratory trial)): 1.12 ng/mL |
| COc1ccc(-c2cc(=O)c3c(OC)c(OC)c(OC)c(OC)c3o2)cc1 [Tangeretin] | – | BQL | – | BQL | BQL | BQL | 5.50 | 6.62 | 5.95 | – | – | – | – | – | – | concentration at 0.5 h ([1]; human, in vivo, po): 0.00573 ± 0.0115 ng/mL; Plasma concentration, 4 h ([1]; in vivo, po): BQL |
| CCCCCCCCC[C@H](O)CC(=O)CCc1ccc(O)c(OC)c1 [[10]-gingerol, [10]-Gingerol] | – | – | – | – | – | – | – | – | – | – | – | – | 8.07 | 7.53 | 7.62 | – |
| CC(C)=CCC[C@](C)(O)[C@H]1CC[C@]2(C)[C@@H]1[C@H](O)C[C@@H]1[C@@]3(C)CC[C@H](O)C(C)(C)[C@@H]3[C@@H](O[C@@H]3O[C@H](CO)[C@@H](O)[C@H](O)[C@H]3O[C@@H]3O[C@@H](C)[C@H](O)[C@@H](O)[C@H]3O)C[C@]12C [ginsenoside Rg2, Ginsenoside Rg2] | – | – | – | – | – | – | – | – | – | – | – | – | 121 | 157 | 126 | – |
